Laboratory results taken from a melting point compilation (Tetko et al.; mined from patent text by program, amines drawn as free bases though some values may be those of a salt).

Compared with `C=CCC(CC=C)n1c(CC)nc2c1c(=O)n(C)c(=O)n2-c1ccc(Cl)cc1Cl`, `CCCCc1nc2cc(Cl)cc(C(=O)O)c2n1C(C)c1ccc(C(=O)O)cc1` (configuration not stated) is higher in melting point: 145 to 146 °C for the first, 312 to 315 °C for the second.

Compared with `COc1ccc2nc(COc3ccc(CC(S)C(N)=O)cc3)n(C)c2c1` (configuration not stated), `CC(=NOCc1ccc(OCc2nc(-c3ccccc3)oc2C)cc1)C(=O)O` is lower in melting point: 204 to 208 °C for the first, 147 to 148 °C for the second.

Compared with `COc1ccc2c(c1)C(=O)c1cccc(OC)c1-2`, `COc1ccccc1-c1c(CC(=O)O)oc(=O)c2ccccc12` is higher in melting point: 125 to 127 °C for the first, 143 to 144 °C for the second.

Compared with `NC(=O)CNC(=O)c1nccc(-c2cccc3cc(Cc4cccc(C(F)(F)F)c4)sc23)n1`, `COC(=O)c1ccc(-c2nc(-c3cccc(C(F)(F)F)c3)co2)cc1` is lower in melting point: 241 to 242 °C for the first, 134 to 135 °C for the second.

First: CCC(C)(C)NC(=O)NC1=CC(=O)OC1
Second: CCOC(=O)C1=C[C@@H]2OC(C)=N[C@@H]2[C@@H](NC(=O)OC(C)(C)C)C1
The melting point of the first is higher: 169 to 171 °C for the first, 45 to 49 °C for the second.

First: COc1cn(-c2cc(-c3cnn(C)c3)ccc2F)nc(-c2ccnn2-c2ccccc2)c1=O
Second: COc1cc2ncnc(N3CCN(C(=O)Nc4ccc(N=Nc5ccccc5)cc4)CC3)c2cc1OC
The melting point of the first is lower: 93 to 102 °C for the first, 244 to 246 °C for the second.

Compared with `N#Cc1cc(-c2ccc(C(F)(F)F)cc2)ccc1-n1cc(-c2cc(F)cc(F)c2)nn1`, `O=C(NCCCCN1CCC(Oc2cccc3ccccc23)CC1)c1ccc(-c2ccc(C(F)(F)F)cc2)cc1` is lower in melting point: 229 to 230 °C for the first, 166 °C for the second.

Compared with `CCC1(C)OC(c2ccc(S(C)(=O)=O)cc2)=C(c2ccc(C(C)=O)cc2)C1=O` (configuration not stated), `COC(=O)c1ccc(OCC2CC(=O)N(c3ccc(OC(C)(C)C)cc3)C2)cc1` (configuration not stated) is lower in melting point: 147 to 148 °C for the first, 126 to 128 °C for the second.

First: O=C1C2CCCCC2C(=O)N1c1ccc(Br)cc1F (configuration not stated)
Second: O=C(O)C(=O)N1CCC(Oc2ccc(F)cc2)CC1
The melting point of the first is lower: 90 to 92 °C for the first, 147 to 149 °C for the second.

Compared with `CC(C)COC(=O)Nc1ccc(C2CCSCC2)cc1`, `COc1cc(NC2CCN(Cc3ccccc3)CC2)ccc1C(N)=O` is higher in melting point: 126 to 128 °C for the first, 155 to 157 °C for the second.

Compared with `O=C(CSCCN1C(=O)c2ccccc2C1=O)c1ccc(F)cc1`, `COC(=O)C(Cc1ccc(OCc2ccccc2)cc1)N1CC(N2C(=O)c3ccccc3C2=O)C1=O` (configuration not stated) is higher in melting point: 124 to 126 °C for the first, 147 to 148 °C for the second.

`CCn1c(-c2c(C)cc(C)cc2C)nc(-c2ccncc2)c1-c1ccc(C)cc1` and `Cc1cc(C)c(Nc2nc(C)ccc2S(=O)(=O)c2ccc(OCc3cccc(F)c3F)cc2)c(C)c1` cannot be ordered by melting point: 137 to 140 °C for the first, 136 to 138 °C for the second.

Compared with `Cc1nn(C)c2c1N(C(=O)CN1CCCCC1)c1ccccc1NC2=O`, `CC(Cn1cc(Cl)c(-c2ccccc2Cl)n1)C(=O)N(C)C` (configuration not stated) is lower in melting point: 156 to 158 °C for the first, 91 to 92 °C for the second.

First: CC(C)N(Cc1ccc(Cl)c(Cl)c1)S(=O)(=O)c1ccc(Cl)s1
Second: Cc1ccc(Cn2ncnc2C(C)NS(=O)(=O)c2ccc(Cl)s2)cc1 (configuration not stated)
The melting point of the first is lower: 66 to 67 °C for the first, 116 to 117 °C for the second.

First: COc1ccc2c(c1)CCC1C2CCC2(C)C(=NN(C)C)C(C)CC12 (configuration not stated)
Second: COCSc1ccc2c(c1)CC[C@@H]1[C@@H]2CC[C@]2(C)C(=O)CC[C@@H]12
The melting point of the first is higher: 122 to 124 °C for the first, 55 °C for the second.

First: CC(=O)C1CCC2C3CCC4CC(O)CCC4(C)C34OC4CC12C (configuration not stated)
Second: Cc1cc2c(cc1-c1ccc(C=CC(=O)O)s1)C(C)(C)CCC2(C)C
The melting point of the first is lower: 160 to 162 °C for the first, 175 to 177 °C for the second.

First: CC(C)c1cccc(C(C)C)c1NC(=S)C1c2ccccc2COc2ccc(Br)cc21 (configuration not stated)
Second: COC(=O)c1ccc2oc(-c3ccccc3OCC(C)OC(=O)c3ccccc3)cc(=O)c2c1 (configuration not stated)
The melting point of the first is lower: 190 to 191 °C for the first, 211 to 213 °C for the second.

Compared with `CCCCCCCCCCCCCCCCCCOC(=O)CCC(=O)OC1CC(C)(C)N(C)C(C)(C)C1`, `CCCCCCCN(CCOCCSc1nc(-c2ccc(OC)cc2)c(-c2ccc(OC)cc2)[nH]1)C(=O)NC(C)C` is higher in melting point: 38 to 40 °C for the first, 85 to 87 °C for the second.

Going from `CCN(CC)S(=O)(=O)c1ccccc1S(=O)(=O)N=C(Nc1nc(OC)nc(OC)n1)SC` to `CCN(CC)CCOc1cc(C(=O)NC(=N)N)c(C)c2ccc(OC)cc12`, the melting point falls from 150 °C to 135 °C.

First: COc1ccc(C(=O)NCCc2cccc(OCc3ccccc3)c2)cc1OC
Second: COc1cc2cc(/C=C/c3ccccc3)[nH]c2cc1OCc1ccccc1
The melting point of the first is lower: 82 to 84 °C for the first, 140 to 145 °C for the second.

Compared with `CN1C(=O)C(c2ccc(OC(F)F)cc2)(c2cccc(CCCCO)c2)N=C1N` (configuration not stated), `CCN(CC)CCOc1ccc2c(c1)c(C(=O)OCc1ccccc1)c(C)n2C` is higher in melting point: 63 to 66 °C for the first, 73 to 74 °C for the second.

First: COC(=O)C1(N)C(=O)Nc2ccccc2CC1c1ccccc1 (configuration not stated)
Second: COC(=O)c1ccccc1NC(=O)CNc1ccccc1
The melting point of the first is higher: 201 °C for the first, 140 to 142 °C for the second.

First: O[C@H](CCc1cccnc1)COc1ccc(Br)cc1
Second: CN(C)Cc1cccc(CSCCNc2ncc(Cc3cccnc3)c(=O)[nH]2)c1
The melting point of the first is lower: 65 to 66 °C for the first, 143 to 145 °C for the second.

First: COC(=O)CCc1[nH]c(Cc2ccc(OCc3nc(-c4ccccc4)oc3C)cc2)nc1-c1ccccc1
Second: CC(=O)NC(C)Cn1cc(-c2ccccc2)c2ccccc2c1=O (configuration not stated)
The melting point of the first is lower: 128 to 129 °C for the first, 177 °C for the second.

Compared with `O=C1N(CC2CCCO2)c2c(Cl)cccc2C12COc1cc3c(cc12)CCO3` (configuration not stated), `COc1cc2c(cc1N1CCN(CC3Cc4ccccc4C3)CC1)OCCO2` is lower in melting point: 192 to 193 °C for the first, 176 to 178 °C for the second.

First: CC[C@@H](COC)n1cc(Cl)nc(N2CCc3cc(Br)cc(Cl)c32)c1=O
Second: COC=Nc1c(S(=O)(=O)C(F)(F)F)c(-c2ncon2)nn1-c1c(Cl)cc(C(F)(F)F)cc1Cl
The melting point of the first is lower: 121 to 122 °C for the first, 158 °C for the second.

First: Nc1cccc2cc(C(=O)N3CCc4ccccc4C3)cnc12
Second: O=C(c1ccc(Cl)nc1)N1Cc2cccn2Cc2ccccc21
The melting point of the first is higher: 238 to 240 °C for the first, 165 to 167 °C for the second.

First: O=c1cnc(-c2ccc([N+](=O)[O-])cc2)c[nH]1
Second: CN1C(=O)CC[C@]2(C)c3ccc(-c4ccc([N+](=O)[O-])cc4C(F)(F)F)cc3CC[C@@H]12
The melting point of the first is higher: 336 to 338 °C for the first, 128 to 130 °C for the second.

First: COc1nc2ncccc2c2nc(SCc3ccccc3)nn12
Second: COc1cc(C=O)cc(I)c1OCc1ccccc1
The melting point of the first is higher: 282 to 284 °C for the first, 53 to 54 °C for the second.

First: Cc1ccc(NC(=O)c2ccc(C(=O)Nc3ccccc3NC(=O)OC(C)(C)C)nc2)cc1Nc1nc(-c2cccnc2)cs1
Second: Cn1ncc(/C=C/C(=O)Nc2ccc(Cc3nc(C(N)=O)cs3)cc2)c1-c1ccc(F)cc1
The melting point of the first is higher: 222 to 224 °C for the first, 159 to 160 °C for the second.

First: COC(=O)c1ccc(CC(C)NCC(O)c2ccccc2Cl)cc1 (configuration not stated)
Second: CCOC(=O)c1ccc2ccccc2c1
The melting point of the first is higher: 109 to 110 °C for the first, 35 to 36.5 °C for the second.

Compared with `O=C(O)COc1ccc2c(-c3ccc(F)cc3)noc2c1Cl`, `COc1ccc(Oc2c(C)cc([N+](=O)[O-])cc2C)cc1C(=O)c1ccc(F)cc1` is lower in melting point: 233 to 237 °C for the first, 167 to 168 °C for the second.

Compared with `CN1Cc2c(C#CC(C)(C)O)ncn2-c2cccc(Cl)c2C1=O`, `CC(C)(C(=O)c1cccnc1)c1ccc(Cl)cc1Cl` is lower in melting point: 194 to 195 °C for the first, 103 to 104 °C for the second.

First: N#CC(O)c1c(Cl)cccc1Cl (configuration not stated)
Second: Cc1nc(Cl)c(C#N)c(C)c1-c1ccccc1
The melting point of the first is lower: 90 °C for the first, 118 to 123 °C for the second.

First: CCOc1cccc(CC(=O)O)c1OCCCc1cn(-c2ccc(Cl)cn2)nc1C(CC)CC
Second: CCN(CCCCc1c[nH]c2ccc(F)cc12)C1COc2c(F)ccc(C(N)=O)c2C1 (configuration not stated)
The melting point of the first is lower: 92 to 93 °C for the first, 110 °C for the second.

Compared with `O=C1NCC(Cc2ccccc2)O1` (configuration not stated), `CCOC(=O)N1C(=O)[C@H](O)[C@@H]1c1ccccc1` is higher in melting point: 104 to 105 °C for the first, 112 to 113 °C for the second.

First: CN1CCN(c2cccc3c2C[C@H](NC(=O)c2ccc(C(=O)C(F)(F)F)cc2)CC3)CC1
Second: N=C(N)c1ccc(N2CCC(N3CCN(CCC(=O)O)C3=O)CC2)cc1
The melting point of the first is lower: 91 to 93 °C for the first, > 275 °C for the second.

First: CC(c1oc2ccccc2c(=O)c1-c1cccc(F)c1)n1nc(-c2cc(O)ccc2Cl)c2c(N)ncnc21 (configuration not stated)
Second: CCc1nc2c(cnn2CC)c(NC2CCOCC2)c1CNC(=O)c1cccc(C(=O)NCc2cc(Cl)cc(-c3cccc(C=O)c3)c2)c1
The melting point of the first is higher: 192 to 195 °C for the first, 123 to 127 °C for the second.

Compared with `CCCCCC(CC(=O)Nc1cc(C(N)=O)ccc1C(C)(C)C)c1cc(F)c(OC)cc1OC` (configuration not stated), `CC(C)(C)c1cc(CCC(=O)O)cc2nc(-c3ccc(-c4nc5cc(CCC(=O)O)cc(C(C)(C)C)c5o4)s3)oc12` is higher in melting point: 150 °C for the first, 247 to 248 °C for the second.

Compared with `Cc1nnc2n1-c1ccccc1C(c1ccccc1)=NC2`, `O=c1[nH]nc(OCC2c3ccccc3-c3ccccc32)o1` is lower in melting point: 216 to 218 °C for the first, 125 °C for the second.

First: COc1ccc(-c2nc(NC(=N)N3CCN(C)CC3)sc2-c2ccc(OC)cc2)cc1
Second: O=C(O)CCCCCN1CCN2c3ccccc3Cc3ccccc3C2C1 (configuration not stated)
The melting point of the first is lower: 161 to 162 °C for the first, 181 to 182 °C for the second.

First: COC(=O)c1ccc(N2CCSC2=N)c([N+](=O)[O-])c1
Second: COC(=O)c1cccc(C[C@H](N)C(=O)O)c1
The melting point of the first is lower: 156 °C for the first, > 200 °C for the second.

First: Cc1ccccc1C=CC=C1SC(=S)N(CC(=O)O)C1=O
Second: NS(=O)(=O)c1ccc(-n2nc(C(=O)O)cc2-c2ccccc2)cc1
The melting point of the first is higher: 210 to 217 °C for the first, 188 to 191 °C for the second.

Compared with `CC(=O)OC1CSC(Oc2ccc(C)nc2)C(OC(C)=O)C1OC(C)=O` (configuration not stated), `CCOC(=O)C(=CNc1ccc(OCC)nc1)C(=O)OCC` is lower in melting point: 130 °C for the first, 68 to 71 °C for the second.

First: CC(=O)Oc1ccccc1C1SC[C@@H](C(=O)O)N1C(=O)CCSC(=O)c1ccc(C)cc1 (some centres not stated)
Second: O=Cc1sccc1Sc1ccccc1
The melting point of the first is lower: 93 to 96 °C for the first, 99 to 100 °C for the second.

First: CCC(CC)(CO)CCCCS(N)(=O)=O
Second: O=C(CCc1ccccc1)NCCCn1ccnc1
The melting point of the first is lower: 64 to 65 °C for the first, 90 to 92 °C for the second.

First: Cc1c(C=O)c2c(c(C)c1NC(=O)CC(C)(C)C)C(c1ccc(C(C)C)cc1)CO2 (configuration not stated)
Second: CCOC(=O)N1CCC(NC(=S)Nc2cncnc2NCc2ccco2)CC1
The melting point of the first is lower: 177 to 178 °C for the first, 193 °C for the second.

Compared with `COC(=O)C(=O)c1cc(O)c(O)c(C#N)c1`, `CON=C(C1=NOCCO1)c1ccccc1CCl` is lower in melting point: 252 °C for the first, 93 to 96 °C for the second.

Work on `O=C(O)C=CC=CCCCCCc1cccc2cncn12` yielded a melting point of 120 to 122 °C.
